Test results reported in patent US20230374038A1, “MODULATORS OF CYSTIC FIBROSIS TRANSMEMBRANE CONDUCTANCE REGULATOR” (VERTEX PHARMACEUTICALS INCORPORATED, priority 2020, published 2023).
Like-named read-outs stand apart in the source and are kept apart here.

Legend:
[1] = biological target: T1, CFTR (Homo sapiens, UniProt P13569, DEL508-508); experiment: HBE Assay: Ussing chamber assay of CFTR-mediated short-circuit currents in F508del/MF-HBE cells with 1 μM Ivacaftor; type: cell-based; details: with 1 μM Ivacaftor, 18-24 hours, 20% human serum
T1 construct: endogenous in cells; host or cells: primary human bronchial epithelial cells, F508del/MF genotype
T1 sequence (P13569 with tags, fused parts or gaps DEL508-508): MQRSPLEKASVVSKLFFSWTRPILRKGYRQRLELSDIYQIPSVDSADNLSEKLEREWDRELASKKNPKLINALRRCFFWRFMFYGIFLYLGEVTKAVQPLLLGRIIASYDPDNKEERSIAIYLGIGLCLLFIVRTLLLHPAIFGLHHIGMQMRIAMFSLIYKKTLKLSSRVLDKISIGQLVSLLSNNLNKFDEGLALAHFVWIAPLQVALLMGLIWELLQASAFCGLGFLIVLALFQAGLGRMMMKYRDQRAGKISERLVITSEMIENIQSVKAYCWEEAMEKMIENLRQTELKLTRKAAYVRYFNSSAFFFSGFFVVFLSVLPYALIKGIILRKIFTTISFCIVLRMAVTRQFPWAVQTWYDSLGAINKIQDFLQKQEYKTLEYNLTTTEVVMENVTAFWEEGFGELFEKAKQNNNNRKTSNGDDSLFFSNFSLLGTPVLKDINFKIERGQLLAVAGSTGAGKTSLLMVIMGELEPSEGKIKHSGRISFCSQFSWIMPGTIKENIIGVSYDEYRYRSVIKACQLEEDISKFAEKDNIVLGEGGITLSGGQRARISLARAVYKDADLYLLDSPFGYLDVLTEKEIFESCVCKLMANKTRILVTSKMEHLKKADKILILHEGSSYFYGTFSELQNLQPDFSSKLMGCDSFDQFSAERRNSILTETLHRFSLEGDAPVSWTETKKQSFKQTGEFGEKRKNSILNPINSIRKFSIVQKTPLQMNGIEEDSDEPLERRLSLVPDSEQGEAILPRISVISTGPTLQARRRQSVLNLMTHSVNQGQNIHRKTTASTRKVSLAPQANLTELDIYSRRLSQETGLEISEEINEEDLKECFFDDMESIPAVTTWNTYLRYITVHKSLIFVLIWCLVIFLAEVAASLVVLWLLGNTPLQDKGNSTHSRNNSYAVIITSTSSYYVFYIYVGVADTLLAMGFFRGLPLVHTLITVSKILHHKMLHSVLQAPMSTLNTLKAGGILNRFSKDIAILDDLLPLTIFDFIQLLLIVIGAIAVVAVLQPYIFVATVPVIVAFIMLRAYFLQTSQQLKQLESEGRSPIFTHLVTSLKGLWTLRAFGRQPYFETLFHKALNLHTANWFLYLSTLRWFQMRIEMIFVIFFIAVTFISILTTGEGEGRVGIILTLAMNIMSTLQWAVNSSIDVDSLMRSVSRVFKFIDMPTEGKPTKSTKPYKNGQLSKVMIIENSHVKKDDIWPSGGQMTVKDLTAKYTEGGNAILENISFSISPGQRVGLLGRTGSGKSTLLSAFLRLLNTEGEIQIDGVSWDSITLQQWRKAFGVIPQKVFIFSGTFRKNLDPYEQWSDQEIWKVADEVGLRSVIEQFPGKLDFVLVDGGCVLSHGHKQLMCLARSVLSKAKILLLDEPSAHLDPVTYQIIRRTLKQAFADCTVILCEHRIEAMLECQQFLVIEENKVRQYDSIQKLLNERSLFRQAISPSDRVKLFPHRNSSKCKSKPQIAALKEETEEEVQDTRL
In short: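 F508del/MF-HBE cells at air-liquid interface >14 days were incubated 18-24 h at 37° C with corrector (concentration range or fixed 10 μM) plus 1 μM Ivacaftor in 20% human serum, compounds kept throughout. Ussing chamber, Vhold=0 mV, 37° C, apical amiloride 30 μM; ISC (μA/cm^2) from peak 20 μM forskolin response to steady state after CFTR inhibitor cocktail.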

[2] = biological target: T2, CFTR (Homo sapiens, UniProt P13569); experiment: Membrane Potential Dye, Enteroid Assay A; type: cell-based
T2 sequence (P13569 with tags, fused parts or gaps DEL508-508): as above
Method: Base medium (ADF+++) consisted of Advanced DMEM/Ham's F12, 2 mM Glutamax, 10 mM HEPES, 1 µg/mL penicillin/streptomycin.
Intestinal enteroid maintenance medium (IEMM) consisted of ADF+++, 1× B27 supplement, 1× N2 supplement, 1.25 mM N-acetyl cysteine, 10 mM Nicotinamide, 50 ng/mL hEGF, 10 nM Gastrin, 1 pg/mL hR-spondin-1, 100 ng/mL hNoggin, TGF-b type 1 inhibitor A-83-01, 100 μg/mL Primocin, […] P38 MAPK inhibitor SB202190.
Bath 1 Buffer consisted of 1 mM MgCl2, 160 mM NaCl, 4.5 mM KCl, 10 mM HEPES, 10 mM Glucose, 2 mM CaCl2).
Chloride Free Buffer consisted of 1 mM Magnesium Gluconate, 2 mM Calcium Gluconate, 4.5 mM Potassium Gluconate, 160 mM Sodium Gluconate, 10 mM HEPES, 10 mM Glucose.
Bath1 Dye Solution consisted of Bath 1 Buffer, 0.04% Pluronic F127, […] Methyl Oxonol, 30 μM CaCCinh-A01, 30 μM Chicago Sky Blue.
Chloride Free Dye Solution consisted of Chloride Free Buffer, 0.04% Pluronic F127, 20 μM Methyl Oxonol, 30 μM CaCCinh-A01, 30 μM Chicago Sky Blue.
Chloride Free Dye Stimulation Solution consisted of Chloride Free Dye Solution, 10 μM forskolin, 100 μM IBMX, and 300 nM Compound III.
Human intestinal epithelial enteroid cells were obtained from the Hubrecht Institute for Developmental Biology and Stem Cell Research, Utrecht, The Netherlands and expanded in T-Flasks as previously described (Dekkers J F, Wiegerinck C L, de Jonge H R, Bronsveld I, Janssens H M, de Winter-de Groot K M, Brandsma A M, de Jong N W M, Bijvelds M J C, Scholte B J, Nieuwenhuis E E S, van den Brink S, Clevers H, van der Ent C K, Middendorp S and M Beekman J M. A functional CFTR assay using primary cystic fibrosis intestinal organoids. Nat Med. 2013 July; 19(7):939-45.).
Cells were recovered in cell recovery solution, collected by centrifugation at 650 rpm for 5 min at 4° C., resuspended in TryPLE and incubated for 5 min at 37° C. Cells were then collected by centrifugation at 650 rpm for 5 min at 4° C. and resuspended in IEMM containing 10 μM ROCK inhibitor (RI). The cell suspension was passed through a 40 μm cell strainer and resuspended at 1×10^6 cells/mL in IEMM containing 10 μM RI. Cells were seeded at 5000 cells/well into multi-well plates and incubated for overnight at 37° C., 95% humidity and 5% CO2 prior to assay.
Enteroid cells were incubated with test compound in IEMM for 18-24 hours at 37° C., 95% humidity and 5% CO2. […] Briefly, cells were washed 5 times in Bath 1 Buffer. Bath 1 Dye Solution was added, and the cells were incubated for 25 min at room temperature. Following dye incubation, cells were washed 3 times in Chloride Free Dye Solution. Chloride transport was initiated by addition of Chloride Free Dye Stimulation Solution and the fluorescence signal was read for 15 min. […] Chloride transport was then expressed as a percentage of the chloride transport following treatment with 3 μM (S)—N-((6-aminopyridin-2-yl)sulfonyl)-6-(3-fluoro-5-isobutoxyphenyl)-2-(2,2,4-trimethylpyrrolidin-1-yl)nicotinamide, 3 μM (R)-1-(2,2-difluorobenzo[d][1,3]dioxol-5-yl)-N-(1-(2,3-dihydroxypropyl)-6-fluoro-2-(1-hydroxy-2-methylpropan-2-yl)-1H-indol-5-yl)cyclopropanecarboxamide and 300 nM acute N-[2,4-bis(1,1-dimethylethyl)-5-hydroxyphenyl]-1,4-dihydro-4-oxoquinoline-3-carboxamide triple combination control (% Activity).

[3] = biological target: T2, CFTR; experiment: Membrane Potential Dye, Enteroid Assay B; type: cell-based; details: for EC50: read-out: Ent. B EC50
In short: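 Membrane-potential fluorescence read over 15 min after chloride-free stimulation (forskolin 10 μM, IBMX 100 μM, Compound III 300 nM), with CaCCinh-A01 and Chicago Sky Blue present. Enteroids had 18-24 h compound exposure at 37 °C; activity given as % of the triple-combination corrector/potentiator reference response.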

Question: Which results are given for Cc1cccc(C)c1-c1nc2nc(c1C)OC[C@@H](CC(C)(C)C)N(Cc1ccc(N3CCOCC3)cn1)C(=O)c1cccc(c1)S(=O)(=O)N2 [Compound 49, (11R)-6-(2,6-Dimethylphenyl)-11-(2,2-dimethylpropyl)-7-methyl-12-{[5-(morpholin-4-yl)pyridin-2-yl]methyl}-9-oxa-2λ^6-thia-3,5,12,19-tetraazatricyclo[12.3.1.14,8]nonadeca-1(17),4(19),5,7,14(18),15-hexaene-2,2,13-trione]?
Answer: ring closure, yield after HPLC (from Cc1cccc(C)c1-c1nc(NS(=O)(=O)c2cccc(C(=O)O)c2)nc(OC[C@@H](CC(C)(C)C)NCc2ccc(N3CCOCC3)cn2)c1C, amide bond, 13-membered ring, CDMT/NMM, DMF, 21.0 mM, 15.0 h, 2 steps): 5%; EC50 [1]: < 1000 nM; HBE Max Activity [1]: +++ (+++ is >600%)

Question: Which ring closure, yield after HPLC (from Cc1ccccc1-c1nc(NS(=O)(=O)c2cccc(C(=O)N3CCN(C)CC3CO)c2)nc(Cl)c1C(F)(F)F, snar bond, 13-membered ring, NaH, NMP, 70.0 °C, 4.0 h, 2 steps) does the source give for Cc1ccccc1-c1nc2nc(c1C(F)(F)F)OCC1CN(C)CCN1C(=O)c1cccc(c1)S(=O)(=O)N2 (stereo not drawn) [Compound 31, 6-Methyl-13-(2-methylphenyl)-12-(trifluoromethyl)-10-oxa-17λ^6-thia-3,6,14,16,23-pentaazatetracyclo[16.3.1.111,15.03,8]tricosa-1(22),11,13,15(23),18,20-hexaene-2,17,17-trione] here?
Answer: The ring closure, yield after HPLC was 6%.

Question: What about the “Ent. A Max Activity” value [2] of the same compound?
Answer: Its value is “++ (++ is 30-60%)”.

Question: And the EC50 ([2]; read-out: Ent. A EC50)?
Answer: Its EC50 is 3000 to 30000 nM.

Question: With Cc1cccc(C)c1-c1nc2nc(c1C(F)(F)F)OC[C@@H](CC(C)C)N(C1CC3(CC3)C1)C(=O)c1cccc(c1)S(=O)(=O)N2 [Compound 162, (11R)-6-(2,6-dimethylphenyl)-11-isobutyl-2,2-dioxo-12-spiro[2.3]hexan-5-yl-7-(trifluoromethyl)-9-oxa-2λ^6-thia-3,5,12,19-tetrazatricyclo[12.3.1.14,8]nonadeca-1(18),4(19),5,7,14,16-hexaen-13-one] as the compound, how does the ring closure, yield after HPLC (from Cc1cccc(C)c1-c1nc(NS(=O)(=O)c2cccc(C(=O)O)c2)nc(OC[C@@H](CC(C)C)NC2CC3(CC3)C2)c1C(F)(F)F, amide bond, 13-membered ring, HATU/TEA, DMF, 11.7 mM, 16.0 h) read?
Answer: Its ring closure, yield after HPLC is 69%.

Question: And the “Ent. B Max Activity” value [3]?
Answer: Its value is “+++ (+++ is >60%)”.

Question: And the EC50 [3]?
Answer: Its EC50 is under 1000 nM.

Question: Which results are given for Cc1cccc(C)c1-c1nc2nc(c1F)O[C@H](c1ccc(C(C)(C)C)cc1)[C@@H](C)NC(=O)c1cccc(c1)S(=O)(=O)N2 [Compound 167, (10R,11R)-10-(4-tert-Butylphenyl)-6-(2,6-dimethylphenyl)-7-fluoro-11-methyl-2,2-dioxo-9-oxa-2λ^6-thia-3,5,12,19-tetrazatricyclo[12.3.1.14,8]nonadeca-1(18),4(19),5,7,14,16-hexaen-13-one]?
Answer: ring closure, yield after HPLC (amide bond, 13-membered ring, NaOtBu then HATU, THF/DMF, 30.0 mM, 2 steps): 30%; Ent. B Max Activity [3]: +++ (+++ is >60%); EC50 [3]: < 1000 nM

Question: For Cc1c2nc(nc1-c1ccccc1C(C)C)NS(=O)(=O)c1cccc(c1)C(=O)N(Cc1ncc(N3CCOCC3)cn1)[C@H](CC(C)(C)C)CO2 [Compound 173, (11R)-11-(2,2-Dimethylpropyl)-7-methyl-12-{[5-(morpholin-4-yl)pyrimidin-2-yl]methyl}-6-[2-(propan-2-yl)phenyl]-9-oxa-2λ^6-thia-3,5,12,19-tetraazatricyclo[12.3.1.14,8]nonadeca-1(17),4(19),5,7,14(18),15-hexaene-2,2,13-trione], which ring closure, yield after HPLC (from Cc1c(OC[C@@H](CC(C)(C)C)NCc2ncc(N3CCOCC3)cn2)nc(NS(=O)(=O)c2cccc(C(=O)O)c2)nc1-c1ccccc1C(C)C, amide bond, 13-membered ring, CDMT/NMM, DMF, 57.0 mM, 19.0 h, 2 steps) is on record?
Answer: Its ring closure, yield after HPLC is 18%.

Question: And the EC50 [1]?
Answer: The EC50 was under 1000 nM.

Question: What about the “HBE Max Activity” value [1] of the same compound?
Answer: Its value is “+++ (+++ is >600%)”.

Question: Which ring closure, yield after HPLC (from Cc1cccc(C)c1-c1nc(NS(=O)(=O)c2cccc(C(=O)O)n2)nc(OC[C@@H](CC(C)C)NC2CC3(CC3)C2)c1C, amide bond, 13-membered ring, HATU/DIEA, DMF, 12.2 mM, 17.0 h) does the source give for Cc1cccc(C)c1-c1nc2nc(c1C)OC[C@@H](CC(C)C)N(C1CC3(CC3)C1)C(=O)c1cccc(n1)S(=O)(=O)N2 [Compound 118, (11R)-6-(2,6-Dimethylphenyl)-7-methyl-11-(2-methylpropyl)-12-{spiro[2.3]hexan-5-yl}-9-oxa-2λ^6-thia-3,5,12,18,19-pentaazatricyclo[12.3.1.14,8]nonadeca-1(17),4(19),5,7,14(18),15-hexaene-2,2,13-trione] here?
Answer: The ring closure, yield after HPLC was 42%.

Question: What about the “Ent. B Max Activity” value [3] of the same compound?
Answer: Its value is “+++ (+++ is >60%)”.

Question: And the EC50 [3]?
Answer: Its EC50 is under 1000 nM.

Question: With Cc1cccc(C)c1-c1nc2nc(c1C)OCCCNC(=O)c1cccc(c1)S(=O)(=O)N2 [Compound 36, 6-(2,6-Dimethylphenyl)-7-methyl-9-oxa-2λ^6-thia-3,5,13,20-tetraazatricyclo[13.3.1.14,8]icosa-1(19),4,6,8(20),15,17-hexaene-2,2,14-trione] as the compound, how does the ring closure, yield after HPLC (from Cc1cccc(C)c1-c1nc(NS(=O)(=O)c2cccc(C(=O)O)c2)nc(OCCCN)c1C, amide bond, 14-membered ring, HATU/DIEA, DMF, 49.0 mM, 25.0 °C, 1.0 h) read?
Answer: The ring closure, yield after HPLC was 46%.

Question: What about the “Ent. B Max Activity” value [3] of the same compound?
Answer: The value was “+ (+ is <30%)”.

Question: What about the EC50 [3] of the same compound?
Answer: The EC50 was 3000 to 30000 nM.

Question: For Cc1cccc(C)c1-c1nc2nc(c1C)OC[C@@H](CC1(C(F)(F)F)CC1)N(C1CC3(CC3)C1)C(=O)c1cccc(c1)S(=O)(=O)N2 [Compound 50, (11R)-6-(2,6-Dimethylphenyl)-7-methyl-2,2-dioxo-12-spiro[2.3]hexan-5-yl-11-[[1-(trifluoromethyl)cyclopropyl]methyl]-9-oxa-2λ^6-thia-3,5,12,19-tetrazatricyclo[12.3.1.14,8]nonadeca-1(18),4(19),5,7,14,16-hexaen-13-one], which ring closure, yield after HPLC (from Cc1cccc(C)c1-c1nc(NS(=O)(=O)c2cccc(C(=O)O)c2)nc(OC[C@@H](CC2(C(F)(F)F)CC2)NC2CC3(CC3)C2)c1C, amide bond, 13-membered ring, HATU/DIEA, DMF, 14.4 mM, 25.0 °C, 23.0 h) is on record?
Answer: The ring closure, yield after HPLC was 44%.

Question: And the “Ent. B Max Activity” value [3]?
Answer: Its value is “+++ (+++ is >60%)”.

Question: And the EC50 [3]?
Answer: Its EC50 is under 1000 nM.

Question: Which ring closure, yield after HPLC (from CCc1c(OC[C@H](N)CC(C)(C)C)nc(NS(=O)(=O)c2cccc(C(=O)O)c2)nc1-c1c(C)cccc1C, amide bond, 13-membered ring, COMU/DIEA, DMF, 20.3 mM, 15.0 h) does the source give for CCc1c2nc(nc1-c1c(C)cccc1C)NS(=O)(=O)c1cccc(c1)C(=O)N[C@H](CC(C)(C)C)CO2 [Compound 161, (11R)-6-(2,6-Dimethylphenyl)-11-(2,2-dimethylpropyl)-7-ethyl-9-oxa-2λ^6-thia-3,5,12,19-tetraazatricyclo[12.3.1.14,8]nonadeca-1(18),4(19),5,7,14,16-hexaene-2,2,13-trione] here?
Answer: The ring closure, yield after HPLC was 41%.

Question: And the “Ent. B Max Activity” value [3]?
Answer: The value was “+++ (+++ is >60%)”.

Question: And the EC50 [3]?
Answer: The EC50 was under 1000 nM.
